ChEMBL document CHEMBL3137667, “[Drug-induced liver injury; fourteenth updated edition of the bibliographic database of liver injuries and related drugs]” (Gastroenterol Clin Biol, 2004)

What was measured:
[1] = Highest frequency of moderate liver toxicity observed during clinical trials, expressed as a percentage. [column '% BIOL' in source]; conditions: human
[2] = Highest frequency of acute liver toxicity observed during clinical trials, expressed as a percentage. [column '% AIGUE' in source]; conditions: human
[3] = Times to onset, minimal and maximal, observed in the indexed observations. [column 'DELAI' in source]; conditions: human
[4] = Proposed mechanism(s) of liver damage. [column 'MEC' in source]; conditions: human
[5] = human, serum
[6] = human, serum; remark: listed apart in the source
[7] = human
[8] = human; remark: listed apart in the source
[9] = human; remark: listed apart in the source
[10] = human, serum, 4383 h
[11] = human; remark: listed apart in the source
[12] = human; remark: listed apart in the source
[13] = human; remark: listed apart in the source
[14] = human; remark: listed apart in the source
[15] = human; remark: listed apart in the source
[16] = human; remark: listed apart in the source
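Wherever Hepatotoxicity (association with vascular disease) is given: count of indexed literature references reporting vascular liver injury in humans, e.g. peliosis hepatitis, hepatic veno-occlusive disease or Budd-Chiari syndrome.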
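Wherever Hepatotoxicity (benign tumour) is given: value is a count of indexed literature references citing a benign tumour confirmed by histopathology.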
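Wherever Hepatotoxicity (choleostasis) is given: human cholestatic liver injury, shown by histopathology or by peak ALT or AST elevation over alkaline phosphatase ratio below 2, value counts indexed literature reports.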
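Wherever Hepatotoxicity (chronic liver disease) is given: chronic liver injury confirmed by histopathology or persistently raised serum aminotransferase activity beyond 6 months, value given as the count of indexed literature references.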
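Wherever Hepatotoxicity (cirrhosis) is given: value is a count of indexed literature references reporting cirrhosis confirmed by histopathology.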
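Wherever Hepatotoxicity (cytolytic) is given: human cytolytic liver injury, shown by histopathology or by a ratio above 5 of peak ALT or AST elevation to alkaline phosphatase elevation, value counts indexed references.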
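Wherever Hepatotoxicity (granulomatous hepatitis) is given: value is a count of indexed literature references reporting granulomatous liver disease confirmed by histopathology.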
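Wherever Hepatotoxicity (malignant tumour) is given: malignant tumour confirmed by histopathology, value gives the count of indexed literature references reporting it.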
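Wherever Hepatotoxicity (severe hepatitis) is given: human clinical data: severe hepatitis, meaning potentially life-threatening liver failure or clinically observed cases, the value counts how many indexed literature references report it.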
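Wherever Hepatotoxicity (steatosis) is given: steatosis confirmed by histopathology, value is the count of indexed references.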

Compound | Hepatotoxicity (moderate) [1] | Hepatotoxicity (acute) [2] | Hepatotoxicity (time to onset) [3] | Hepatotoxicity (mechanism) [4] | Hepatotoxicity (moderate) [5] | Hepatotoxicity (acute) [6] | Hepatotoxicity (cytolytic) [7] | Hepatotoxicity (choleostasis) [8] | Hepatotoxicity (severe hepatitis) [9] | Hepatotoxicity (chronic liver disease) [10] | Hepatotoxicity (cirrhosis) [11] | Hepatotoxicity (granulomatous hepatitis) [12] | Hepatotoxicity (association with vascular disease) [13] | Hepatotoxicity (steatosis) [14] | Hepatotoxicity (malignant tumour) [15] | Hepatotoxicity (benign tumour) [16] | also measured
Nc1ccc(S(N)(=O)=O)cc1 [SULFANILAMIDE] | 0% | 0% | 2 weeks - 3 months | Allergic | 0 | 5 | 5 | 1 | 5 | 0 | 0 | 0 | 0 | 1 | 0 | 0 | 
Cc1ncc(C[n+]2csc(CCO)c2C)c(N)n1 [THIAMINE ION] |  |  | 2 years |  | 0 | 0 |  |  |  | 1 | 0 |  | 0 | 1 | 0 | 0 | Hepatotoxicity (moderate) ([1]; Liver): 0%; Hepatotoxicity (acute) ([2]; Liver): 0%; Hepatotoxicity (mechanism) ([4]; Liver): Dose-dependant; Hepatotoxicity (cytolytic) ([7]; Liver): 0; Hepatotoxicity (choleostasis) ([8]; Liver): 0; Hepatotoxicity (severe hepatitis) ([9]; Liver): 0; Hepatotoxicity (granulomatous hepatitis) ([12]; Liver): 0
CN1CCN(CCCN2c3ccccc3Sc3ccc(S(=O)(=O)N(C)C)cc32)CC1 [THIOPROPERAZINE] | 0% | 0% | 24 days - > 1 month | Allergic | 0 | 2 | 2 | 1 | 0 | 0 | 0 | 0 | 0 | 0 | 0 | 0 | 
C[C@@H]1C[C@H]2[C@@H]3CCC4=CC(=O)C=C[C@]4(C)C3=CC[C@]2(C)[C@H]1C(=O)CN1CCN(c2cc(N3CCCC3)nc(N3CCCC3)n2)CC1 [TIRILAZAD] | 8.5% | 0% | 3 days - 10 days | Dose-dependant | 2 | 0 | 0 | 0 | 0 | 0 | 0 | 0 | 0 | 0 | 0 | 0 | 
Cc1ccc(O)c([C@H](CCN(C(C)C)C(C)C)c2ccccc2)c1 [TOLTERODINE] | 0% | 0% | 18 days | Allergic | 0 | 1 | 1 | 1 | 0 | 0 | 0 | 0 | 0 | 0 | 0 | 0 | 
O=c1n(CCCN2CCN(c3cccc(Cl)c3)CC2)nc2ccccn12 [TRAZODONE] | 0% | 0% | 5 days - 18 months | Allergic | 0 | 8 | 5 | 3 | 1 | 1 | 0 | 0 | 0 | 0 | 0 | 0 | 
CCC(COC(=O)c1cc(OC)c(OC)c(OC)c1)(c1ccccc1)N(C)C (stereo not given) [TRIMEBUTINE] | 0% | 0% | 2 weeks | Allergic | 0 | 1 | 1 | 0 | 0 | 0 | 0 | 0 | 0 | 0 | 0 | 0 | 
CN1C(=O)OC(C)(C)C1=O [TRIMETHADIONE] | 0% | 0% | 2 weeks - 1 month | Allergic | 1 | 3 | 1 | 0 | 0 | 0 | 0 | 0 | 0 | 0 | 0 | 0 | 
CC(C)[C@H](N)C(=O)OCCOCn1cnc2c(=O)[nH]c(N)nc21 [VALACYCLOVIR] | 17.6% | 0% | 10 days | Dose-dependant | 2 | 1 | 1 | 1 | 0 | 0 | 0 | 0 | 0 | 0 | 0 | 0 | 
COc1ccc(C(CN(C)C)C2(O)CCCCC2)cc1 (stereo not given) [VENLAFAXINE] | 2.8% | 0% | 12 days - 6 months | Allergic | 3 | 4 | 3 | 1 | 0 | 0 | 0 | 0 | 0 | 0 | 0 | 0 | 
